Test: log P (HPLC/MS data of the preparation examples)
Conditions: HCOOH (formic acid)

| Compound | chromatographic logP |
| --- | --- |
| Cc1nocc1C(=NOC(=O)c1ccccn1)c1cccs1 [({[(3-methyl-1,2-oxazol-4-yl)(2-thienyl)methylene]amino}oxy)(pyridin-2-yl)methanone] | 2.25 |
| CON(C)C(=O)c1snc(Cl)c1Cl [3,4-dichloro-N-methoxy-N-methyl-1,2-thiazole-5-carboxamide] | 1.66 |
| O=C(c1ccsc1)c1snc(Cl)c1Cl [(3,4-dichloro-1,2-thiazol-5-yl)(3-thienyl)methanone] | 3.31 |
| Cn1cncc1C(=NO)c1cccs1 [N-hydroxy-1-(1-methyl-1H-imidazol-5-yl)-1-(2-thienyl)methanimine] | 0.45 |
| ON=C(c1ccsc1)c1snc(Cl)c1Cl [1-(3,4-dichloro-1,2-thiazol-5-yl)-N-hydroxy-1-(3-thienyl)methanimine] | 3.04 |
| Cn1cncc1C(=O)c1ccccc1 [(1-methyl-1H-imidazol-5-yl)(phenyl)methanone] | 0.79 |

Same assay, conditions: HPLC (LC-MS) method [b]: pH 2.7, 0.1% formic acid in water and acetonitrile, linear gradient 10% to 95% acetonitrile; EEC directive 79/831 Annex V.A8

| Compound | log p |
| --- | --- |
| Cn1cncc1C(=NOCc1cccc(NC(=O)COc2ccccc2)n1)c1ccsc1 [Example 435] | 1.96^[b] |
| CCCCC(=O)Nc1cccc(CON=C(c2ccsc2)c2cncn2C)n1 [Example 440] | 1.75^[b] |
| Cn1ncnc1C(=NOCc1nccc(N)n1)c1ncc(C(F)(F)F)cc1Cl [Example 472] | 1.2^[b] |
| CCCCCOC(=O)Nc1nc(CON=C(c2cccs2)c2cncn2C)cs1 (single isomer, unassigned) [Example 460] | 2.25^[b] |
| Cn1cncc1C(=NOCc1csc(NC(=O)C(C)(C)C)n1)c1cccs1 [Example 449] | 1.67^[b] |
| CCCCCC(=O)Nc1nc(CON=C(c2ncc(C(F)(F)F)cc2Cl)c2ncnn2C)cs1 [Example 479] | 3.6^[b] |
| Cn1ncnc1C(=NOCc1nccc(NC(=O)Cc2ccccc2)n1)c1ncc(C(F)(F)F)cc1Cl [Example 476] | 3.13^[b] |
| Cn1cncc1C(=NOCc1cccc(NC(=O)COc2ccccc2)n1)c1cccs1 [Example 431] | 1.94^[b] |
| CC(C)CC(=O)Nc1cccc(CON=C(c2ccsc2)c2cncn2C)n1 [Example 442] | 1.7^[b] |
| Cn1cncc1C(=NOCc1csc(NC(=O)COc2ccccc2)n1)c1cccs1 [Example 434] | 1.87^[b] |
| Cn1cccc1C(=NOCc1cccc(N2C(=O)c3ccccc3C2=O)n1)c1ccc(Cl)nc1 [Example 463] | 3.78^[b] |

Same assay, conditions: HPLC on reversed phase columns, method [a]: pH 2.3 with 0.1% phosphoric acid and acetonitrile as eluent

| Compound | log p |
| --- | --- |
| Cc1nnsc1C(=NOCc1ccccn1)c1ccccc1 [Example 1] | 2.36^[a] |

Same assay, conditions: HPLC, method [a]: pH 2.3 with 0.1% phosphoric acid and acetonitrile as eluent

| Compound | log p |
| --- | --- |
| CC(C)CC(=O)Nc1cccc(CON=C(c2cccs2)c2ncnn2C)n1 [Example 396] | 2.78^[a]; |

Same assay, conditions: LC-MS, method [b]: pH 2.7 with 0.1% formic acid in water and acetonitrile, linear gradient 10% to 95% acetonitrile

| Compound | log p |
| --- | --- |
| Cn1ccnc1C(=NOCc1cccc(NC(=O)COc2ccccc2)n1)c1cccc(F)c1 [Example 293] | 2.63^[b] |
| CCCCC(=O)Nc1ccnc(CON=C(c2ccccc2)c2cncn2C)n1 [Example 128] | 1.75^[b] |
| CCCC(=O)Nc1cccc(CON=C(c2ccccc2)c2nc(C)cnc2C)n1 [Example 381] | 3.21^[b] |
| Cn1ncnc1C(=NOCc1csc(NC(=O)Cc2ccccc2)n1)c1cccs1 [Example 402] | 2.82^[b] |
| Cn1ncnc1C(=NOCc1cccc(NC(=O)CCc2ccccc2Cl)n1)c1ccccc1 [Example 301] | 3.72^[b] |
| CCCCCC(=O)Nc1ccnc(CON=C(c2cccs2)c2nccn2C)n1 [Example 388] | 1.93^[b] |
| Cn1cncc1C(=NOCc1nccc(N)n1)c1ccccc1 [Example 95] | 0.01^[b] |
| Cn1ccnc1C(=NOCc1cccc(N2C(=O)c3ccccc3C2=O)n1)c1ccccc1 [Example 2] | 1.8^[b] |
| CCCCCC(=O)Nc1ccnc(CON=C(c2ccccc2)c2cnnn2C)n1 [Example 71] | 3.23^[b] |
| CCCCCOC(=O)Nc1ccnc(CON=C(c2ccccc2)c2cnnn2C)n1 [Example 87] | 3.55^[b] |
| Cn1nncc1C(=NOCc1csc(NC(=O)C(C)(C)C)n1)c1ccccc1 [Example 83] | 3.06^[b] |
| CCCCCC(=O)Nc1cccc(CON=C(c2cccc(C)c2)c2ncnn2C)n1 [Example 48] | 3.55^[b] |
| CC(C)CC(=O)NCc1cccc(CON=C(c2ccccc2)c2ncnn2C)n1 [Example 136] | 2.23^[b] |
| CCCCCC(=O)Nc1cccc(CON=C(c2ccccc2)c2cnnn2C)n1 [Example 65] | 3.52^[b] |
| COc1cccc(CCC(=O)Nc2cccc(CON=C(c3ccccc3)c3ncnn3C)n2)c1 [Example 298] | 3.25^[b] |
| CCCCCOC(=O)Nc1cccc(CON=C(c2ccccc2)c2nc(C)cnc2C)n1 [Example 378] | 4.75^[b] |
| CC(C)C=C(OC(=O)CC(C)C)c1ncc(C(=NOCc2nccc(NC(=O)CC(C)C)n2)c2ccccc2)n1C [Example 103] | 4.04^[b] |
| CCOC(=O)Nc1ccnc(CON=C(c2ccccc2)c2nccn2C)n1 [Example 52] | 1.47^[b] |
| Cc1cccc(C(=NOCc2cccc(NC(=O)Cc3ccccc3)n2)c2ncnn2C)c1 [Example 31] | 3.35^[b] |

| Compound | log p |
| --- | --- |
| C=CCCC(=O)Nc1cccc(CON=C(c2ccccc2)c2ncnn2C)n1 [Example 310] | 2.77^[b] |
| COc1ccc(C(=NOCc2cccc(NC(=O)CC(C)C)n2)c2ncc(C(F)(F)F)cc2Cl)cc1Br [Example 370] | 5.03^[b] |
| Cn1ncnc1C(=NOCc1cccc(NC(=O)CCc2ccccc2)n1)c1cccs1 [Example 392] | 3.17^[b] |
| CCC(C)COC(=O)Nc1cccc(CON=C(c2cccc(F)c2)c2nccn2C)n1 (centres unmarked) [Example 344] | 2.82^[b] |
| Cn1ccnc1C(=NOCc1cccc(NC(=O)OCCF)n1)c1cccc(F)c1 [Example 343] | 1.75^[b] |
| CCCCCC(=O)Nc1cccc(CON=C(c2cccs2)c2ncnn2C)n1 [Example 393] | 3.23^[b] |
| CCCCCC(=O)Nc1cccc(CON=C(c2ccc(OC)c(Br)c2)c2ncc(C(F)(F)F)cc2Cl)n1 [Example 368] | 5.44^[b] |
| CCCCCOC(=O)Nc1nc(CON=C(c2ccccc2)c2cnnn2C)cs1 [Example 84] | 3.76^[b] |
| CC(C)CC(=O)Nc1ccnc(CON=C(c2ccccc2)c2cnnn2C)n1 [Example 82] | 2.77^[b] |
| CCCCCC(=O)Nc1cccc(CON=C(c2ccccc2)c2nccn2C)n1 [Example 33] | 2.23^[b] |
| CC(C)CC(=O)Nc1cccc(CON=C(c2cccs2)c2ncnn2C)n1 [Example 396] | 2.78^[b] |
| CCCCCCC(=O)Nc1cccc(CON=C(c2ccccc2)c2nc(C)cnc2C)n1 [Example 380] | 4.54^[b] |
| Cn1ncnc1C(=NOCc1nccc(NC(=O)C(C)(C)C)n1)c1cccs1 [Example 407] | 2.59^[b] |
| N-(cyclopropylcarbonyl)-N-(2-{[({[2-(cyclopropylcarbonyl)-1-methyl-1H-imidazol-5-yl](phenyl)methylene}amino)oxy]methyl}pyrimidin-4-yl)cyclopropanecarboxamide [Example 312] | 2.22^[b] |
| CCCCCOC(=O)Nc1nc(CON=C(c2cccs2)c2ncnn2C)cs1 [Example 400] | 3.53^[b] |
| CCOC(=O)Nc1cccc(CON=C(c2ccccc2)c2ncnn2C)n1 [Example 93] | 2.71^[b] |
| CCCCCC(=O)Nc1ccnc(CON=C(c2ccccc2)c2nccn2C)n1 [Example 16] | 2.1^[b] |
| COc1ccc(C(=NOCc2cccc(NC(=O)C3CC3)n2)c2ncc(C(F)(F)F)cc2Cl)cc1Br [Example 360] | 4.54^[b] |
| CCC(C)COC(=O)Nc1cccc(CON=C(c2ccccc2)c2nccn2C)n1 (centres unmarked) [Example 324] | 2.52^[b] |

Same assay, conditions: method [b]: LC-MS at pH 2.7, 0.1% formic acid in water / acetonitrile, linear gradient 10% to 95% acetonitrile

| Compound | log p |
| --- | --- |
| COCCC(=O)Nc1cccc(CON=C(c2ccccc2)c2nccn2C)n1 [Example 270] | 4.53^[b] |
| Cc1nc(C(=NOCc2cccc(NC(=O)C(C)(C)C)n2)c2ccccc2)cs1 [Example 172] | 3.56^[b] |
| Cn1cnnc1C(=NOCc1cccc(NC(=O)CC(F)(F)F)n1)c1ccccc1 [Example 160] | 2.28^[b] |
| Cn1nc(C(F)(F)F)nc1C(=NOCc1cccc(N)n1)c1ccccc1 [Example 181] | 1.97^[b] |
| CCCCCC(=O)Nc1cccc(CON=C(c2ccccc2)c2nnc(C(F)(F)F)n2C)n1 [Example 196] | 3.94^[b] |
| Cn1nc(C(F)(F)F)nc1C(=NOCc1cccc(NC(=O)CCc2ccccc2)n1)c1ccccc1 [Example 176] | 4.49^[b] |
| Cn1ncnc1C(=NOCc1cccc(CN)n1)c1ccccc1 [Example 162] | 0.99^[b] |
| CCCCC(=O)Nc1cccc(CON=C(c2ccccc2)c2snnc2C)n1 [Example 224] | 4.04^[b] |
| COCCC(=O)Nc1cccc(CON=C(c2cccc(F)c2)c2nccn2C)n1 [Example 277] | 1.69^[b] |
| CCC(C)CC(=O)Nc1cccc(CON=C(c2ccccc2)c2nccn2C)n1 (centres unmarked) [Example 262] | 2.54^[b] |
| Cn1ncnc1C(=NOCc1cccc(NC(=O)Cc2cc(F)cc(F)c2)n1)c1ccccc1 [Example 241] | 3.33^[b] |
| CCOc1ccc(C(=O)Nc2cccc(CON=C(c3ccccc3)c3nnc(C(F)(F)F)n3C)n2)cc1 [Example 205] | 3.94^[b] |
| CCCC(C)C(=O)Nc1cccc(CON=C(c2ccccc2)c2nccn2C)n1 (centres unmarked) [Example 263] | 2.54^[b] |
| Cn1nc(C(=NOCc2cccc(NC(=O)c3cccs3)n2)c2ccccc2)n(C)c1=O [Example 152] | 2.82^[b] |
| Cn1nc(C(=NOCc2cccc(NC(=O)Cc3ccccc3)n2)c2ccccc2)n(C)c1=O [Example 149] | 2.94^[b] |
| Cn1c(C(=NOCc2cccc(NC(=O)c3cccs3)n2)c2ccccc2)nnc1C(F)(F)F [Example 204] | 3.48^[b] |

Same assay, conditions: reversed phase HPLC column, pH 2.7

| Compound | chromatographic logP |
| --- | --- |
| CCCCCOC(=O)Nc1nc(CON=C(c2ccccc2)c2ocnc2C)cs1 [Example 321, pentyl{4-[({[(4-methyl-1,3-oxazol-5-yl)(phenyl)methylene]amino}oxy)methyl]-1,3-thiazol-2-yl}carbamate] | 4.09 |

Source: US8981111B2 (priority 2008, dated 2015)
